What was measured:
[1] = xn = mol fraction of the nth substance listed; details: 101.3 kPa, Liquid; for speed of sound: Sing-around technique in a fixed-path interferometer; for mass density: Vibrating tube method
[2] = refractive index (Na D-line) (dimensionless); xn = mol fraction of the nth substance listed; details: 101.3 kPa, Liquid, Standard Abbe refractometry

CCCCn1cc[n+](C)c1.COS(=O)(=O)[O-] [1-butyl-3-methylimidazolium methyl sulfate] + CCCO
Details	mass density, [1] [kg/m3]	refractive index, [2]	speed of sound, [1] [m/s]
298.15 K, x1 = 0.0482	852.432	1.39591	1242.8
298.15 K, x1 = 0.0965	896.455	1.40632	1276
298.15 K, x1 = 0.1937	967.583	1.42298	1338.1
298.15 K, x1 = 0.2929	1023.11	1.43588	1394.2
298.15 K, x1 = 0.3903	1066.53	1.44583	1443.9
298.15 K, x1 = 0.4958	1104.3	1.45448	1491.7
298.15 K, x1 = 0.59	1132.04	1.46078	1529.8
298.15 K, x1 = 0.6907	1156.89	1.46636	1566.3
298.15 K, x1 = 0.7981	1179.34	1.47134	1601.1
298.15 K, x1 = 0.8932	1196.47	1.47515	1629
298.15 K, x1 = 0.951	1205.24	1.4776	1643.1
298.15 K, x1 = 1	1212.06	1.47824	1654.6
303.15 K, x1 = 0.0482	848.503	1.39407	1227
303.15 K, x1 = 0.0965	892.596	1.40459	–
303.15 K, x1 = 0.1937	963.817	1.42138	1323.8
303.15 K, x1 = 0.2929	1019.43	1.43433	1380.5
303.15 K, x1 = 0.3903	1062.93	1.44433	1430.6
303.15 K, x1 = 0.4958	1100.77	1.45302	1478.8
303.15 K, x1 = 0.59	1128.56	1.45937	1517.2
303.15 K, x1 = 0.6907	1153.44	1.46499	1553.9
303.15 K, x1 = 0.7981	1175.92	1.46997	1588.9
303.15 K, x1 = 0.8932	1192.93	1.47378	1616.9
303.15 K, x1 = 0.951	1201.87	1.47628	1630.9
303.15 K, x1 = 1	1208.7	1.47704	1642.2
308.15 K, x1 = 0.0482	844.545	1.39212	1211.1
308.15 K, x1 = 0.0965	888.716	1.40276	1245.5
308.15 K, x1 = 0.1937	960.044	1.41966	1309.3
308.15 K, x1 = 0.2929	1015.75	1.43273	1366.6
308.15 K, x1 = 0.3903	1059.34	1.4428	1417.3
308.15 K, x1 = 0.4958	1097.25	1.45154	1465.8
308.15 K, x1 = 0.59	1125.08	1.45793	1504.5
308.15 K, x1 = 0.6907	1150	1.46358	1541.4
308.15 K, x1 = 0.7981	1172.52	1.46856	1576.5
308.15 K, x1 = 0.8932	1189.33	1.47238	1604.7
308.15 K, x1 = 0.951	1198.5	1.47491	1618.7
308.15 K, x1 = 1	1205.35	1.47577	1630
313.15 K, x1 = 0.0482	840.564	1.39019	1195.2
313.15 K, x1 = 0.0965	884.815	1.4009	1230.2
313.15 K, x1 = 0.1937	956.26	1.41794	1294.9
313.15 K, x1 = 0.2929	1012.08	1.43111	1352.8
313.15 K, x1 = 0.3903	1055.75	1.44126	1404
313.15 K, x1 = 0.4958	1093.74	1.45008	1453
313.15 K, x1 = 0.59	1121.62	1.45649	1492
313.15 K, x1 = 0.6907	1146.58	1.46215	1529.1
313.15 K, x1 = 0.7981	1169.13	1.46715	1564.4
313.15 K, x1 = 0.8932	1185.78	1.4709	1592.5
313.15 K, x1 = 0.951	1195.15	1.47354	1606.6
313.15 K, x1 = 1	1202.01	1.47443	1617.9

— the NIST ThermoML archive (doi:10.1016/j.jct.2012.08.030)
